In patent US12673052B2, “Combinations for the treatment of cancer” (Exelixis, Inc., priority 2020, dated 2026):
Where two headings read alike, the source gives them in different places.

Legend:
MET = target: T1, MET (Homo sapiens, UniProt P08581, DEL964-1010); assay: Endogenous phosphorylated MET in Hs 746T gastric carcinoma cells (MET exon 14 skip-splice mutation); type: cell-based; settings: MET (Hs 746T), no ligand; read-out: Cellular IC50
T1 construct: endogenous in cells; host or cells: Hs 746T gastric carcinoma cells
T1 sequence (P08581 with tags, fused parts or gaps DEL964-1010 limits assumed): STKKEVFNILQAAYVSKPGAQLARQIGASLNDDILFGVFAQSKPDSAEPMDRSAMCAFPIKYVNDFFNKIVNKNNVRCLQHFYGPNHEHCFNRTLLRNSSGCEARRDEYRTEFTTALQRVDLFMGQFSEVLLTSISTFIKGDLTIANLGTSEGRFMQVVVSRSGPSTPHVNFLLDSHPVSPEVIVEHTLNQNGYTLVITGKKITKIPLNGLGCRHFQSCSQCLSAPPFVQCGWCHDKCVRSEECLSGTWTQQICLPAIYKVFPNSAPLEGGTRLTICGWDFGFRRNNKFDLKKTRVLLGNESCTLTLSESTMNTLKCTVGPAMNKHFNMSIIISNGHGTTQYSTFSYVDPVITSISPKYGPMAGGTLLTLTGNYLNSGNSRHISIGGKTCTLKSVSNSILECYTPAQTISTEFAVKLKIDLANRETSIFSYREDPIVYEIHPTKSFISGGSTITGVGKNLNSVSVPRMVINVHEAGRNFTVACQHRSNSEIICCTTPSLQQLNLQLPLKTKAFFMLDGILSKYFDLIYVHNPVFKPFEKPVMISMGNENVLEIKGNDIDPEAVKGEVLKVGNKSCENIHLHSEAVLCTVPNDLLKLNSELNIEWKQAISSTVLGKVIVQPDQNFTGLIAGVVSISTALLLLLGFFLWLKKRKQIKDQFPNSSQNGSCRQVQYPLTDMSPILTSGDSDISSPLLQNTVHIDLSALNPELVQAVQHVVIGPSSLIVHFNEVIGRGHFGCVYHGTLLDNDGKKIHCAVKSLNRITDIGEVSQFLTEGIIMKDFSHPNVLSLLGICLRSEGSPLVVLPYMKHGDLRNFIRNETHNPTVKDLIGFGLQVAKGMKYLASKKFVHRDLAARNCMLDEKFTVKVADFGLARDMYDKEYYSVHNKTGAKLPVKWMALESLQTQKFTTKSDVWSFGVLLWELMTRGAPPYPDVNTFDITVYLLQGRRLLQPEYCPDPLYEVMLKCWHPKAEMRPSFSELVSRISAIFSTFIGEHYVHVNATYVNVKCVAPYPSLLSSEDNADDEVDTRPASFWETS
T1 sequence (P08581 25-307 partner limits assumed): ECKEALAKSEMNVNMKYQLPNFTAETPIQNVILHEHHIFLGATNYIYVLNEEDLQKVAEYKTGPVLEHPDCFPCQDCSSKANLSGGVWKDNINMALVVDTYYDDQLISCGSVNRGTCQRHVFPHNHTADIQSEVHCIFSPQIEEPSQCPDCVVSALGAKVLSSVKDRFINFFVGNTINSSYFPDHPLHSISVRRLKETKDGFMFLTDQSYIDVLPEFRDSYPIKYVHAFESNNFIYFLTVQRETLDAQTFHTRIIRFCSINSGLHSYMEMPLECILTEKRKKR
Procedure: The activity of Compound 1 was evaluated in cell-based assays that assessed the mechanistic effects of the compound in tumor and normal cells. Consistent with the biochemical data, Compound 1 is a potent inhibitor of cellular RTKs as assessed by analysis of receptor autophosphorylation as measured by enzyme-linked immunosorbent assay. Assays were performed using cell lines (PC-3, HUVEC, and A-172) stimulated with ligands to their respective receptors to induce autophosphorylation (MET, VEGFR2, and AXL) or a cell line (293A) transfected with an expression vector encoding the receptor of interest (MER). Inhibition of endogenous phosphorylated MET by Compound 1 in Hs 746T gastric carcinoma cells was also investigated due to the presence of the skip-splice mutation of exon 14 in the MET gene. This MET exon 14 alteration leads to increased MET stability and oncogenic activation, including constitutive MET phosphorylation. Also this mutation is known to occur in 3% of lung adenocarcinoma patients and to be sensitive to MET-targeted therapies (Frampton et al 2015).

[1] = In vitro plasma protein binding; type: in vitro ADME; settings: 0.2 and 1 μM
Procedure: Plasma PK of Compound 1 was characterized in rats and beagle dogs. Toxicokinetic (TK) evaluations of oral Compound 1 were evaluated in repeat-dose studies in rats and dogs. Plasma protein binding was determined in mouse, rat, dog, monkey, and human plasma in vitro. Biotransformation and metabolite profiling of Compound 1 were investigated in vitro using mouse, rat, dog, monkey, and human liver microsomal fractions and hepatocytes and in vivo in rats and dogs. P-glycoprotein (P-gp) and breast cancer resistance protein (BCRP) transporter interaction studies, in vitro experiments evaluating cytochrome P450 (CYP) induction and inhibition by Compound 1, and CYP and glucuronosyltransferase (UGT) substrate specificity studies of Compound 1 were also performed.
Compound 1 (10 μM) was 97.2 and 97.5% protein bound in monkey and human plasma, respectively.

[2] = Phase 1 first-in-human Study Compound 1-001 (NCT03845166): plasma pharmacokinetics; type: in vivo; settings: for Cmax / AUC(0-t) / Tmax / half-life / Tmax at 28 days / half-life at 28 days: human, plasma, oral; for AUC(0-t): read-out: AUC0-24
Source text: The maximum tolerated dose (MTD) and/or recommended dose (RD) of Compound 1 single-agent therapy and ICI combination therapy will be determined in a Dose-Escalation Stage. The preliminary efficacy of Compound 1 as single agent and as ICI combination therapy will be determined in a Cohort-Expansion Stage with tumor-specific expansion cohorts. As of 14 Dec. 2020, dose escalation of Compound 1 as single agent and in combination therapy with atezolizumab was ongoing: 19 subjects were enrolled in single agent cohorts across six dose levels (PIB: 10, 20 mg; Tablet: 20, 40, 80, 140 mg); three subjects were enrolled in combination therapy with atezolizumab at one dose level (Compound 1 40 mg po qd plus atezolizumab 1200 mg IV q3w). As of 14 Dec. […] The majority of reported adverse events (AEs) were of low-grade severity (Grade 1-2) with five subjects having experienced treatment-related Grade 3 events.
As of 14 Dec. 2020, preliminary Compound 1 clinical PK data are available from 17 subjects in the single agent Dose-Escalation Stage of Study Compound 1-001 (n=3 for 10 mg liquid formulation [PIB]; n=4 for 20 mg liquid formulation [PIB]; n=3 for 20 mg tablet; n =4 for 40 mg tablet; n=3 for 80 mg tablet). In addition, PK of Compound 1 was evaluated when given in the combination with atezolizumab. PK data from a total of 3 subjects enrolled in the Combination Cohort 1 (40 mg Compound 1 qd+1200 mg atezolizumab q3w) are available. A summary of all available PK parameters estimated by non-compartmental approach using individual plasma concentration-time data from a single agent Compound 1 is presented in Table 1. Mean (standard deviation [SD]) plasma Compound 1 concentration-time profiles following a single agent PIB or tablet formulation are illustrated in FIG. 8.
• Blood samples to assess the PK of Compound 1 and its potential metabolites will be obtained during the DLT Evaluation Period: • On the date of first dose of study treatment (prior to study treatment administration) at hourly intervals up to 8 hours postdose on W1D1 and W4D7 (Day 28) • Predose on W1D2 • Predose and 2 hours postdose on W2D1, W3D1, and W4D1 • During the Washout Period on W5D1, W5D2, W5D3, and W5D5 (W5D2, W5D3, and W5D5 PK samples are not required for biomarker cohorts.) • Blood samples for PK analysis will be obtained after the DLT Evaluation and Washout Periods • Predose and 2 hours postdose on W6D1, W9D1, and W13D1.

[3] = 10 mg PIB, Steady-State (Day 28), mean ± SD
[4] = 20 mg PIB, Steady-State (Day 28), N = 3, mean ± SD
[5] = 20 mg Tablet, Steady-State (Day 28), mean ± SD
[6] = 40 mg Tablet, Steady-State (Day 28), mean ± SD
[7] = 80 mg Tablet, Steady-State (Day 28), mean ± SD
[8] = 10 mg, 10 mg PIB, First Dose (Day 1), mean ± SD
[9] = 10 mg, 10 mg PIB, Steady-State (Day 28), mean ± SD
[10] = 20 mg, 20 mg PIB, First Dose (Day 1), mean ± SD
[11] = 20 mg, 20 mg PIB, Steady-State (Day 28), N = 3, mean ± SD
[12] = 20 mg, 20 mg Tablet, First Dose (Day 1), mean ± SD
[13] = 20 mg, 20 mg Tablet, Steady-State (Day 28), mean ± SD
[14] = 40 mg, 40 mg Tablet, First Dose (Day 1), mean ± SD
[15] = 40 mg, 40 mg Tablet, Steady-State (Day 28), mean ± SD
[16] = 80 mg, 80 mg Tablet, First Dose (Day 1), mean ± SD
[17] = 80 mg, 80 mg Tablet, Steady-State (Day 28), mean ± SD

## CNC(=O)c1cc2c(Oc3ccc(NC(=O)C4(C(=O)Nc5ccc(F)cc5)CC4)cc3)ccnc2cc1OC [Compound 1, 1-N′-(4-Fluorophenvl)-1-N-[4-[7-methoxy-6-(methylcarbamovl)quinolin-4-yl]oxyphenyl]cyclopropane-1,1-dicarboxamide]
MET
  IC50: 26 nM
[1]; dog
  fraction unbound: < 0.01
[1]; mouse
  fraction unbound: < 0.01
[1]; rat
  fraction unbound: < 0.01
[2]; [3]
  AR AUC0-24 (accumulation ratio): 1.92 ± 0.593
  AR Cmax (accumulation ratio): 2.76 ± 0.609
[2]; [4]
  AR AUC0-24 (accumulation ratio): 3.61 ± 4.09
  AR Cmax (accumulation ratio): 4.09 ± 5.40
[2]; [5]
  AR AUC0-24 (accumulation ratio): 1.33 ± 0.136
  AR Cmax (accumulation ratio): 1.30 ± 0.374
[2]; 40 mg Compound 1 qd + 1200 mg atezolizumab q3w, steady-state, lower in combination
  mean exposure of Compound 1 (Cmax and AUC0-24) in combination with atezolizumab relative to single agent: approximately 2 fold
[2]; [6]
  AR AUC0-24 (accumulation ratio): 1.46 ± 0.286
  AR Cmax (accumulation ratio): 1.27 ± 0.0979
[2]; [7]
  AR AUC0-24 (accumulation ratio): 1.88 ± 0.947
  AR Cmax (accumulation ratio): 1.67 ± 0.636
[2]; 20-mg tablet
  accumulation at steady state: < 2 fold
[2]; PIB 10 mg to 20 mg, Day 1
  increase of mean exposure (AUC0-24) with dose: approximately dose proportionally
[2]; first dose Day 1, tablet higher
  Mean PK exposure (Cmax and AUC0-24) of 20 mg tablet relative to 20 mg PIB: approximately 3.7 fold
[2]; first dose, 20 to 80 mg tablets, single agent
  increase of exposure with dose: approximately dose proportional
[2]; [8]
  Cmax: 35.7 ± 10.8 ng/mL
  AUC(0-t): 510 ± 193 ng·h/mL
[2]; 10 mg, 10 mg PIB, First Dose (Day 1), median (min, max), read-out: Tmax
  Tmax: 1 h
[2]; [9]
  Cmax: 95.2 ± 17.8 ng/mL
  AUC(0-t): 971 ± 398 ng·h/mL
[2]; 10 mg, 10 mg PIB, Steady-State (Day 28), mean ± SD, read-out: t1/2 (terminal phase half-life) (converted)
  half-life: 19.9 ± 1.3 h
[2]; 10 mg, 10 mg PIB, Steady-State (Day 28), median (min, max)
  Tmax at 28 days: 2 h
[2]; [10]
  Cmax: 91.9 ± 13.4 ng/mL
  AUC(0-t): 1000 ± 338 ng·h/mL
[2]; 20 mg, 20 mg PIB, First Dose (Day 1), median (min, max), read-out: Tmax
  Tmax: 2 h
[2]; [11]
  Cmax: 330 ± 409 ng/mL
  AUC(0-t): 3270 ± 4010 ng·h/mL
[2]; 20 mg, 20 mg PIB, Steady-State (Day 28), N = 3, mean ± SD, read-out: t1/2 (terminal phase half-life) (converted)
  half-life: 21 ± 5.7 h
[2]; 20 mg, 20 mg PIB, Steady-State (Day 28), N = 3, median (min, max)
  Tmax at 28 days: 2 h
[2]; [12]
  Cmax: 342 ± 225 ng/mL
  AUC(0-t): 3680 ± 1550 ng·h/mL
[2]; 20 mg, 20 mg Tablet, First Dose (Day 1), median (min, max), read-out: Tmax
  Tmax: 6 h
[2]; [13]
  Cmax: 422 ± 241 ng/mL
  AUC(0-t): 5030 ± 2560 ng·h/mL
[2]; 20 mg, 20 mg Tablet, Steady-State (Day 28), mean ± SD, read-out: t1/2 (terminal phase half-life) (converted)
  half-life: 27.8 ± 4.74 h
[2]; 20 mg, 20 mg Tablet, Steady-State (Day 28), median (min, max), read-out: Tmax
  Tmax: 1 h
[2]; 20 mg, PIB 10 and 20 mg, steady-state Day 28, read-out: mean terminal half-life (t1/2) (converted)
  half-life at 28 days: ~20 h
[2]; [14]
  Cmax: 521 ± 202 ng/mL
  AUC(0-t): 6350 ± 1540 ng·h/mL
[2]; 40 mg, 40 mg Tablet, First Dose (Day 1), median (min, max), read-out: Tmax
  Tmax: 5 h
[2]; [15]
  Cmax: 656 ± 242 ng/mL
  AUC(0-t): 8190 ± 1560 ng·h/mL
[2]; 40 mg, 40 mg Tablet, Steady-State (Day 28), mean ± SD, read-out: t1/2 (terminal phase half-life) (converted)
  half-life: 24.2 ± 5.01 h
[2]; 40 mg, 40 mg Tablet, Steady-State (Day 28), median (min, max), read-out: Tmax
  Tmax: 3 h
[2]; [16]
  Cmax: 935 ± 348 ng/mL
  AUC(0-t): 11000 ± 6290 ng·h/mL
[2]; 80 mg, 80 mg Tablet, First Dose (Day 1), median (min, max), read-out: Tmax
  Tmax: 2 h
[2]; [17]
  Cmax: 1440 ± 454 ng/mL
  AUC(0-t): 16900 ± 3120 ng·h/mL
[2]; 80 mg, 80 mg Tablet, Steady-State (Day 28), mean ± SD, read-out: t1/2 (terminal phase half-life) (converted)
  half-life: 19.3 ± 3.35 h
[2]; 80 mg, 80 mg Tablet, Steady-State (Day 28), median (min, max), read-out: Tmax
  Tmax: 3 h
[2]; first dose, tablets 20 to 80 mg, read-out: median Tmax
  Tmax: 2 to 6 h
[2]; tablet (as of April 2021), read-out: terminal half-life at steady state
  half-life: 24 to 28 h
[2]; tablets, steady-state, read-out: mean t1/2
  half-life at 28 days: 19 to 28 h
[2]; steady-state Day 28
  exposure (AUC0-24) of 20-mg tablet higher than 20 mg PIB: approximately 50%
[2]; tablets, after 28 days of daily dosing
  accumulation in exposure (Cmax and AUC0-24) at steady-state: < 2 fold
[2]; tablets, steady-state
  mean apparent CL/F: approximately 5 L/hr
